Like-named read-outs stand apart in the source and are kept apart here. Marks after values point to notes of the source that are not given here. Blank lines part the entries; values can stand above or below the compound they belong to.
Assays:
[1] = IIIATO group: single oral ATO 20 mg/kg b.w. alone, rat plasma, n = 8; median (quartiles) or mean ± SD (CV %); adopted from previous study ref 12; cited from earlier work
[2] = Plasma pharmacokinetics of REG, M-2 and M-5 in rats after single oral REG with or without ATO (UPLC-MS/MS, non-compartmental analysis); type: in vivo, male Wistar rats; settings: for increase of AUC0–t / increase of AUC0–∞: IREG+ATO group compared to control IIREG group; for Cmax as share of the REG Cmax: single dose of REG 20 mg/kg; for AUC0–t / AUC0–∞ / Cmax / AUC(0-inf) / AUC(0-t): rat plasma; for AUC0–t / AUC0–∞ / Cmax / Tmax / Vd/F / AUC(0-inf) / AUC(0-t): n = 8
Procedure: Nonetheless, no other experimental conditions were changed.
Next, 20 μL of acetonitrile was added. The samples were mixed for 10 min and then centrifuged for 10 min at 8500 rpm. 50 μL of the resulting supernatant was filtered and used for further analysis. Each sample was analyzed twice, and the arithmetic mean was determined from the surface areas obtained in the chromatogram.
The LC–MS/MS system consisted of a Xevo TQ-S-micro triple quadrupole mass spectrometer coupled with a UPLC Acquity I-class PLUS (Waters Corporation, Milford, MA, USA), and the Waters Software MassLynx V4.2 SCN1017 Software. A Cortecs UPLC C18 column (2.1 × 50 mm, 1.6 μm) was equipped with an Acquity UPLC BEH C18 VanGuard pre-column (2.1 × 5 mm, 3/Pk, Waters Corporation). The injection volume was 5 μL. The temperature of the autosampler was 4 °C, and the temperature of the column was 40 °C. Mobile phase A was composed of 0.1% aqueous formic acid solution (v/v), and phase B of acetonitrile: methanol and 0.1% formic acid aqueous solution at 1:3 (v/v) ratio. The total run time was 5 min. […] Positive electrospray ionization (ESI) multiple reaction monitoring (MRM) experiments were conducted for sample analysis. The Xevo TQ-S Micro Mass spectrometer (Waters) was run in the positive ion mode, and configured in the multiple reaction monitoring mode, for the detection of REG, REG-N-oxide (M-2), N-desmethyl-REG-N-oxide (M-5), and isotope-labelled REG-d3.
The data were collected and processed using the MassLynx Software (V 4.2 SCN 1017, Waters). The following settings were used for the Xevo TQ-S Micro Mass spectrometer: source temperature—150 °C, desolvation temperature—600 °C, nitrogen gas flow—900 L/h, capillary voltage 3.6 kV. Transition ion pairs (parent m/z—daughter m/z) were identified, using the MRM mode, for the following compounds: 482.95–270.08 and 288.02 for REG; 499.00–304.01, 252.16, and 229.00 for M-2; 485.94–202.02 and 228.98 for M-5; and 486.02–273.07 for REG-d3 as an IS.

[3] = design: method as in earlier work; settings: mice, repeated oral 10 mg/kg of REG for 5 consecutive days; ref 27 (Zopf et al.); cited from earlier work
[4] = IIREG group: REG 20 mg/kg b.w. alone, median (quartiles)
[5] = IREG+ATO group: REG 20 mg/kg + ATO 20 mg/kg b.w., median (quartiles)
[6] = metabolite of REG, IIREG group: single oral REG 20 mg/kg b.w. alone, median (quartiles)
[7] = metabolite of REG, IREG+ATO group: single oral REG 20 mg/kg + ATO 20 mg/kg b.w., median (quartiles)
[8] = in the presence of ATO (IREG+ATO vs IIREG)
[9] = male, Wistar, rat, plasma, po, 20 mg/kg, IIREG group: single oral REG 20 mg/kg b.w. alone, median (quartiles)
[10] = male, Wistar, rat, plasma, po, 20 mg/kg, IREG+ATO group: single oral REG 20 mg/kg + ATO 20 mg/kg b.w., median (quartiles)

M-2/REG ratio AUC0–t [2, 4]: 0.26 (0.20; 0.31)
M-2/REG ratio AUC0–∞ [2, 4]: 0.30 (0.26; 0.38)
M-2/REG ratio Cmax [2, 4]: 0.18 (0.13; 0.28)
increase of AUC0–t [2]: 4.5 fold
increase of AUC0–∞ [2]: 3.6 fold
Cmax as share of the REG Cmax ([2]; IREG+ATO group): 24.14%
M-2/REG ratio AUC0–t [2, 5]: 0.31 (0.27; 0.45)
M-2/REG ratio Cmax [2, 5]: 0.27 (0.20; 0.33)
Gmean ratio (90% CI) of AUC0–t ([2]; IREG+ATO vs IIREG): 5.47 (4.30; 6.96)*
Gmean ratio (90% CI) of AUC0–∞ ([2]; IREG+ATO vs IIREG): 4.55 (3.70; 5.60)*
Gmean ratio (90% CI) of Cmax ([2]; IREG+ATO vs IIREG): 5.03 (3.82; 6.62)*
Gmean ratio (90% CI) of M-2/REG ratio AUC0–t ([2]; IREG+ATO vs IIREG): 1.30 (0.96; 1.76)*
Gmean ratio (90% CI) of M-2/REG ratio AUC0–∞ ([2]; IREG+ATO vs IIREG): 1.08 (0.81; 1.46)*
Gmean ratio (90% CI) of M-2/REG ratio Cmax ([2]; IREG+ATO vs IIREG): 1.35 (0.60; 3.07)*
Cmax as share of the REG Cmax ([2]; REG group): 15.28%
AUC0–t [2, 6]: 9548.40 (8488.70; 11,642.31) ng × h/mL
AUC0–∞ [2, 6]: 10,947.48 (9718.99; 12,781.14) ng × h/mL
Cmax [2, 6]: 302.15 (249.90; 395.95) ng/mL
Cmax [2, 7]: 1647.45 (1374.65; 1994.65) ng/mL
SMILES: CNC(=O)c1cc(Oc2ccc(NC(=O)Nc3ccc(Cl)c(C(F)(F)F)c3)c(F)c2)cc[n+]1[O-] [M-2, regorafenib N-oxide]
AUC0–t [2, 7]: 52,182.11 (40,840.43; 64,989.90) ng × h/mL
AUC0–∞ [2, 7]: 52,438.36 (41,030.58; 65,561.89) ng × h/mL
Cmax as share of the REG Cmax [3]: 15.17%

M-5/REG ratio Cmax [2, 4]: 0.01 (0.01; 0.02)
increase of AUC0–t [2]: 6.0 fold
increase of AUC0–∞ [2]: 6.0 fold
Cmax as share of the REG Cmax ([2]; IREG+ATO group): 2.12%
M-5/REG ratio Cmax [2, 5]: 0.02 (0.02; 0.02)
Gmean ratio (90% CI) of AUC0–t ([2]; IREG+ATO vs IIREG): 7.13 (6.13; 8.29)*
Gmean ratio (90% CI) of AUC0–∞ ([2]; IREG+ATO vs IIREG): 7.16 (6.21; 8.26)*
Gmean ratio (90% CI) of Cmax ([2]; IREG+ATO vs IIREG): 5.65 (5.06; 6.31)*
Gmean ratio (90% CI) of M-5/REG ratio AUC0–t ([2]; IREG+ATO vs IIREG): 1.70 (1.42; 2.03)
Gmean ratio (90% CI) of M-5/REG ratio AUC0–∞ ([2]; IREG+ATO vs IIREG): 1.71 (1.43; 2.03)
Gmean ratio (90% CI) of M-5/REG ratio Cmax ([2]; IREG+ATO vs IIREG): 1.52 (0.68; 3.39)*
Cmax as share of the REG Cmax ([2]; REG group): 1.17%
increase of M-5/REG ratio for AUC0–t ([2]; in the presence of ATO): 100.0%
increase of M-5/REG ratio for AUC0–∞ ([2]; in the presence of ATO): 100.0%
increase of M-5/REG ratio for Cmax ([2]; in the presence of ATO): 66.7%
AUC0–t [2, 6]: 791.48 (703.15; 884.23) ng × h/mL
AUC0–∞ [2, 6]: 833.10 (752.92; 929.13) ng × h/mL
Cmax [2, 6]: 26.90 (23.40; 28.65) ng/mL
AUC0–t [2, 7]: 5501.55 (5310.04; 5967.36) ng × h/mL
AUC0–∞ [2, 7]: 5919.80 (5556.63; 6371.62) ng × h/mL
Cmax [2, 7]: 150.05 (136.75; 155.40) ng/mL
SMILES: NC(=O)c1cc(Oc2ccc(NC(=O)Nc3ccc(Cl)c(C(F)(F)F)c3)c(F)c2)cc[n+]1[O-] [M-5, N-desmethyl regorafenib N-oxide]
Cmax as share of the REG Cmax [3]: 1.27%

Further lines, the compound ahead of its results:

SMILES: CC(C)c1c(C(=O)Nc2ccccc2O)c(-c2ccccc2)c(-c2ccc(F)cc2)n1CC[C@@H](O)C[C@@H](O)CC(=O)O [2-OH ATO, orthohydroxy atorvastatin]
AUC0–t [1]: 544.83 (448.90; 682.46) ng × h/mL
Cmax [1]: 126.09 (87.49; 276.16) ng/mL

SMILES: CC(C)c1c(C(=O)Nc2ccc(O)cc2)c(-c2ccccc2)c(-c2ccc(F)cc2)n1CC[C@@H](O)C[C@@H](O)CC(=O)O [4-OH ATO, parahydroxy atorvastatin]
AUC0–∞ [1]: 18.32 (12.89; 24.73) ng × h/mL

SMILES: CNC(=O)c1cc(Oc2ccc(NC(=O)Nc3ccc(Cl)c(C(F)(F)F)c3)c(F)c2)ccn1 [REG, regorafenib, reference compound]
increase of AUC0–t [2]: 3.2 fold
increase of AUC0–∞ [2]: 3.2 fold
Gmean ratio (90% CI) of AUC0–t ([2]; IREG+ATO vs IIREG): 4.20 (3.57; 4.95)*
Gmean ratio (90% CI) of AUC0–∞ ([2]; IREG+ATO vs IIREG): 4.20 (3.56; 4.94)*
Gmean ratio (90% CI) of Cl/F ([2]; IREG+ATO vs IIREG): 0.26 (0.22; 0.30)*
Gmean ratio (90% CI) of Cmax ([2]; IREG+ATO vs IIREG): 3.72 (3.20; 4.32)*
Gmean ratio (90% CI) of Vd/F ([2]; IREG+ATO vs IIREG): 0.28 (0.22; 0.37)*
Gmean ratio (90% CI) of ka ([2]; IREG+ATO vs IIREG): 1.60 (1.09; 2.37)
Gmean ratio (90% CI) of kel ([2]; IREG+ATO vs IIREG): 0.91 (0.75; 1.10)
Gmean ratio (90% CI) of t1/2 ([2]; IREG+ATO vs IIREG): 1.10 (0.91; 1.33)
Gmean ratio (90% CI) of tmax ([2]; IREG+ATO vs IIREG): 0.85 (0.63; 1.17)*
differences in tmax, ka, kel, t0.5 ([2]; IREG+ATO vs IIREG): No statistically significant differences
decrease of Cl/F [2, 8]: 72.7%
decrease of Vd/F [2, 8]: 71.7%
Tmax [2, 9]: 6 h
Vd/F [2, 9]: 1.98 L
AUC(0-inf) [2, 9]: 36000 ng·h/mL
AUC(0-t) [2, 9]: 35800 ng·h/mL
Cmax ([2]; male, Wistar, rat, plasma, po, 20 mg/kg, IIREG group: single oral REG 20 mg/kg b.w. alone, median (quartiles), read-out: Cmax): 1880 ng/mL
Tmax [2, 10]: 5 h
Vd/F [2, 10]: 0.51 L
AUC(0-inf) [2, 10]: 163000 ng·h/mL
AUC(0-t) [2, 10]: 163000 ng·h/mL
Cmax ([2]; male, Wistar, rat, plasma, po, 20 mg/kg, IREG+ATO group: single oral REG 20 mg/kg + ATO 20 mg/kg b.w., median (quartiles), read-out: Cmax): 7290 ng/mL
